Results as given in patent publication EP4663207A1, “LYMPHATIC VESSEL CONTRAST AGENT WITHOUT VENOUS CONTAMINATION” (Inventera Inc., priority 2023, dated 2024).
Read-outs that look alike come from different tables or passages of the source.

Experiments:
[1] = test system: popliteal lymph node and surrounding lymphatic vessels; assay: Magnetic resonance lymphangiography (MRL) in rats, Example 1; assay type: in vivo, male Sprague-Dawley (SD) rats
Procedure: Specifically, all animals used in Example 1 were male Sprague-Dawley (SD) rats weighing 250-300 g. The prepared contrast agent was administered intradermally/subcutaneously into the fourth digits of both hind limbs using a 30-gauge needle. MRL was performed every 16 minutes using a 3D time-of-flight (TOF) sequence with a saturation band on a 9.4-T preclinical MRI scanner.
Gd-DOTA (Gd-DOTA, DOTAREM, Guerbet, Roissy CdG Cedex, France) was used as a Gd-based contrast agent. The Gd-DOTA stock solution, provided at a concentration of 500 mM, was diluted with normal saline before its administration.
The signal-to-noise ratio (SNR) and contrast-to-noise ratio (CNR) of the popliteal lymph node and surrounding lymphatic vessels were analyzed at a dose of 1.125 µmol (75 µL, 15 mM) of INV-001 and Gd-DOTA. Through sequential MRI imaging, dynamic patterns of SNR and CNR and peak time points in the popliteal lymph node and lymphatic vessels were obtained (FIG. 4a). […] In the 1.125 µmol INV-001 group, peak enhancement appeared between 16 and 32 minutes during extended visualization (SNRLN: 23.49 ± 8.64; SNRLV: 16.05 ± 3.52; CNRLN: 15.87 ± 11.05; CNRLV: 12.58 ± 3.37) (FIG. 4b).
Following injection of the contrast agents into the hind limb, magnetic resonance lymphangiography (MRL) was performed using 3D TOF under saturation band conditions to distinguish lymphatic vessels. […] In contrast, in all INV-001 groups, the popliteal lymph node and lymphatic vessels were clearly visualized without venous contamination (FIGs. 5e, 5f, and 5g, yellow arrows). Methylene blue was injected two days after MRL to verify the anatomical structures (FIGs. 5d and 5h).
Qualitative image analyses under various injection conditions were performed using Gd-DOTA and INV-001. In all groups, MRL provided good visualization of the popliteal lymph node and lymphatic vessels (FIG. 6). The qualitative image analysis was conducted according to the criteria shown in Table 1 (Criteria for qualitative score).

[2] = test system: lymphatic vessels; assay: MRL after intradermal injection, Example 2; assay type: in vivo, rats; conditions: lower limb, checked with methylene blue
Procedure: INV-001 was administered intradermally into the interdigital space of the lower limb of animals using a 31-gauge syringe. The injection volume was set at 10, 20, 30, 40, 50, or 75 microliters per animal, corresponding to a human equivalent dose of 2, 4, 6, 8, 10, or 15 mL, respectively.
Prior to MRI acquisition, the animals were anesthetized by inhalation of isoflurane delivered in oxygen at a concentration of 0.5-2%. If necessary, local anesthesia with lidocaine was applied to relieve procedural discomfort.
Baseline MRI images were acquired prior to the administration of the contrast agent. Following the injection of INV-001 prepared in Example 2-1, MRI scans were conducted every 16 minutes for a total of 96 minutes. The imaging sequence used was 3D Time-of-Flight Gradient Echo (3D TOF GRE), with images obtained in axial, sagittal, and coronal planes. […]
Maximum intensity projection (MIP) images were generated from the baseline and post-injection MRI data acquired at 16-minute intervals for 96 minutes. […] The overall image quality, including vessel discontinuity, was assessed using a four-point scale (-, +, ++, +++). Additionally, the presence of dermal backflow and lymph node congestion was evaluated. […]
To confirm the clearance of the injected contrast agent, the administration site was evaluated 24 hours after intradermal injection.

[3] = MR relaxivity, phantom at 9.4 T
Procedure: The hydrodynamic size of INV-001 was measured to be 3.6 nm (FIG. 3b). Subsequently, the T1 and T2 relaxation rates (1/T1 and 1/T2) of INV-001 were measured at 9.4 T (FIG. 3c). The longitudinal and transverse relaxivities (r1 and r2) were calculated at various INV-001 concentrations (0.125, 0.25, 0.5, and 1.0 mM). The r1 was determined to be 2.61 mM^-1·s^-1 and the r2 was 4.33 mM^-1·s^-1 (FIGS. 3d and 3e).

[4] = test system: knee joint cavity; assay: Magnetic resonance arthrography after intra-articular injection in rats; assay type: in vivo, Male Sprague-Dawley rats
Procedure: Male Sprague-Dawley rats aged 7 weeks or older were anesthetized using a mixture of oxygen and isoflurane gas. INV-002 synthesized in Example 4-1 was then administered into the knee joint, and T1-weighted MRI images were acquired using a fast spin echo sequence.
For example, the T1 signal intensity of the synovial fluid increased from 4,900 (before injection) to 21,000 (after injection). Subsequently, the contrast-to-noise ratios (CNRs) of various anatomical regions within the joint cavity- including the meniscus, joint capsule, cruciate ligament, bone, and fat - were analyzed (FIG. 22F). The CNR was calculated as the difference in average signal intensity between the synovial fluid and each anatomical structure, divided by the standard deviation of the background signal. After INV-002 injection, the CNRs for the meniscus, capsule, cruciate ligament, bone, and fat regions increased by 10-fold, 8.5-fold, 18-fold, 14-fold, 12-fold, […], respectively, compared to pre-injection levels.
The contrast effect of INV-002 was not only stronger than that of the gadolinium-based contrast agent (e.g., Dotarem) but also lasted longer. For quantitative analysis of contrast enhancement, the signal-to-noise ratio (SNR) was measured at two intra-articular locations (indicated by orange arrows), and the average SNR was plotted over time. […]

[5] = MR relaxivity, phantom at 3 T; conditions: 3 T MRI
Source text: The r2/r1 ratio serves as a metric for determining whether the nanoparticles are more appropriate for use as T1 MRI contrast agents or T2 MRI contrast agents.
The hydrodynamic diameter of the synthesized INV-001 was 3.9 nm with a surface charge of -3.3 mV. […] The particle size of this contrast agent exceeds the maximum size (2 nm) permissible for intravasation, thereby preventing its entry into blood vessels. Thus, it is theoretically suitable for use as a lymphatic-specific contrast agent that infiltrates the lymphatic vessels without venous contamination when administered intradermally or subcutaneously.
The measured r1 and r2 relaxivity values of NEMO-103 were 2.0 mM^-1s^-1 and 2.3 mM^-1s^-1, respectively (FIGS. 29d and 29e). The r2/r1 ratio, which is an important parameter for T1 MRI contrast agents, was calculated to be 1.15. […] For comparison, the measured r1 and r2 values of Dotarem® were 4.7 mM^-1s^-1 and 5.2 mM^-1s^-1, respectively, resulting in an r2/r1 ratio of 1.11.
To evaluate the T1 MRI performance of the materials from Example 7-7, both the spin-spin relaxivity coefficient (r2) and spin-lattice relaxivity coefficient (r1) were measured, and the r2/r1 ratio was calculated. The r2/r1 ratio is a critical indicator in determining whether a contrast agent is suitable for T1 or T2 MRI.

[6] = 1.125 µmol (75 µL, 15 mM), at peak enhancement

- time of peak enhancement post-injection ([1]; popliteal lymph node and lymphatic vessels, scans every 16 min): 16 min
- time of peak SNR post-injection ([4]; average of two intra-articular locations): 0.25 h
- SNR dropped to baseline within ([4]; post-injection): ≤ 0.5 h
SMILES: CNC[C@H](O)[C@@H](O)[C@H](O)[C@H](O)CO.O=C([O-])CN1CCN(CC(=O)[O-])CCN(CC(=O)O)CCN(CC(=O)[O-])CC1.[Gd+3] [Gd-DOTA]
- qualitative score [1]: 3.2
- venous contamination ([1]; 1.125 µmol (75 µL, 15 mM), hind limb): venous contamination was observed
- CNRLN [1, 6]: 21.61 ± 10.04
- CNRLV [1, 6]: 7.89 ± 5.15
- SNRLV [1, 6]: 11.15 ± 5.83
- SNRLN ([1]; 1.125 µmol (75 µL, 15 mM), at peak enhancement (Gd-DOTA 16 min, INV-001 16-32 min)): 26.96 ± 10.78
- qualitative score ([1]; 2.25 µmol (75 µL, 30 mM)): 3.8
- venous contamination ([1]; 2.25 µmol (75 µL, 30 mM), hind limb): venous contamination was observed
- venous contamination ([1]; doses of 0.45 µmol or higher (discussion)): venous contamination in most animals
- enhancement of lymphatic vessels versus veins (venous contamination) [2]: preferentially enhanced veins more than lymphatic vessels
- T1 contrast enhancement in phantom studies [3]: ~3.7 mM⁻¹ s⁻¹
- r1 [5]: 4.7 mM⁻¹ s⁻¹
